Measured values published in US8637050B2, “Peptide vaccines against group A streptococci” (The United States of America, as represented by the …, priority 2001, dated 2014).
No end group written: not given here.

Experiments:
[1] = test system: anti-M protein antibodies in mouse sera; test: ELISA of sera of mice immunized s.c. with peptide in alum (immunogenicity); type: in vivo, mice (Swiss Webster)
Protocol: (§1) Levels of anti-M protein antibodies in mouse sera were determined by an enzyme-linked immunosorbent assay (ELISA) using either synthetic peptides or whole M protein as antigen. Microtiter plates (DYNEX Immulon 2 HB) were coated with 10 μg/ml antigen in 10 mM phosphate-buffered saline (PBS) at 4° C. overnight. Plates were rinsed three times with wash buffer (0.05% Tween 20 in 10 mM PBS, pH 7.2) and blocked with 1% BSA in PBS for one hour at 37° C. The appropriate test sera were applied at a starting dilution of 1:1000 and serially diluted two fold down the plate in PBS. Plates were incubated at 37° C. for 30 minutes and subsequently rinsed three times. Goat anti-rabbit or goat anti-mouse Ig-peroxidase conjugate diluted 1:10,000 in PBS was added to all wells and incubated for two hours at 37° C. Plates were rinsed three times with wash buffer and freshly prepared TMB peroxidase (Kirkegaard and Perry Laboratories) was added. Reactions were quenched with 0.18 M H2SO4 after 30 minutes at room temperature and OD450 was measured with a Labsystems Multiskan plate reader using Ascent software. ELISA titers are expressed as the reciprocal of the last dilution which gave a reading OD450>0.10.
(§2) Mice (6 week old female Swiss Webster, Harley-Sprague) were immunized subcutaneously (s.c.) with either the peptide in alum or alum alone for control groups. Peptides were rotated in the alum mixture for 2 hours at 4° C. and stored at 4° C. overnight prior to use.

[2] = test system: rabbit sera prepared against whole M protein; test: ELISA: peptide recognition by anti-M protein rabbit sera; type: binding; conditions: for immunoreactivity of peptide with anti-M protein rabbit sera (ELISA): rabbit sera against whole M protein of the respective serotype
Protocol: Overlapping peptides representing each M type were assessed for their immunogenicity using ELISA and dot-immunoblot.
as §1
The immunoreactivity of several synthetic peptides was determined by ELISA using rabbit sera prepared against whole M protein. The synthetic peptides are representative of relatively small portions of the M protein N-terminus; therefore, it was advantageous to determine if the epitopes contained within particular peptides were immunoreactive with sera prepared against whole M protein. It was shown that the whole anti-M protein rabbit sera of the respective serotypes could bind to each of the synthetic peptides within that serotype. However, some peptides were more highly immunoreactive than others, thus being better suited for use in the animal studies.

GAS M type M3 = test: Opsonophagocytosis / bactericidal activity in vitro, GAS M type M3; type: cell-based, Group A streptococci; conditions: for reduction of M3 type bacteria: in vitro versus control; for % CFU reduction: in vitro, GAS M type M3
Protocol: (§3) Opsonophagocytosis assays were performed as previously described in Lancefield, R. C., Persistence of type-specific antibodies in man following infection with group A streptococci, 1959, J. Immunol., 89:307. Briefly, diluted serum (50 μl) was added to mid-log phase GAS (10^3 CFU) in Todd-Hewitt broth (50 μl) and whole, heparinized blood (500 μl) from a nonopsonic human donor. Mixtures were briefly vortexed and placed at 37° C. in a shaker for 3 hours. Dilutions were then plated on trypticase soy agar plates (5% sheep blood) to quantitate viable organisms. The % killing is expressed as [(CFU control-CFU test)/CFU control]×100.
(§4) Some of the peptides tested in the previous examples were tested for cross-type protection using the methods described above. […] The peptide tested and serotype against which it was tested is indicated.

GAS = test: Opsonophagocytosis assay in vitro with sera of immunized mice; type: cell-based, Group A streptococci; conditions: human whole blood, 3 hours
Protocol: as §3
Each of the sera tested positive in the assay and was able to reduce the amount of viable bacteria relative to controls.

streptococci (GAS) = test: Nasopharyngeal colonization challenge in vaccinated mice; type: in vivo; conditions: vaccinated mice relative to alum-only control mice; nasal wash 24 hours after 10^4 CFU challenge
Protocol: as §2
(§5) Mice were challenged intranasally one week after the final booster injection was administered. Prior to being challenged, mice were anesthetized with a ketamine/xylazine mixture. Mice were then given 10^4-10^5 CFU (10 μl) of streptococci intranasally via a microliter pipette. They were sacrificed 24 hours after the challenge and the nasopharyngeal passages were washed with approximately 100 μl physiological saline which was collected and immediately placed on ice. Dilutions of the wash were then plated on trypticase soy agar plates (5% sheep blood) and incubated at 37° C. for 18 hours to quantitate viable organisms. Nasopharyngeal colonization in immunized mice was compared to non-immunized controls. Statistical analysis of the NP data was accomplished using the t-test and rank sum test.
Nasopharyngeal (NP) colonization challenge experiments were performed on mice vaccinated (s.c.) with either M3-1 or M3-2 peptide in alum in comparison to control animals which received alum only. The nasopharyngeal colonization challenge was performed by doing a nasal wash 24 hours after challenge. […]

GAS M type M43 = test: Opsonophagocytosis / bactericidal activity in vitro, heterologous GAS M type M43; type: cell-based, Group A streptococci; conditions: for reduction of M43 type bacteria: in vitro versus control; for % CFU reduction: in vitro, heterologous GAS M type M43
Protocol: as §3, §4

GAS M type M12 = test: Opsonophagocytosis / bactericidal activity in vitro, GAS M type M12; type: cell-based, Group A streptococci
Protocol: as §3, §4

GAS M type M3 or M43 = test: Reduction of colonization in mice, colonizing GAS M type M3 or M43; type: in vivo
Protocol: as §2, §5
Some of the peptides were tested for reduction of colonization of GAS in mice. […] The peptides were administered together but were not chemically combined in any way. […] Some of the mice were colonized by M3, and some of the mice were colonized by M43.

GAS M type M1 [3] = test: Reduction of colonization in mice, colonizing GAS M type M1; type: in vivo
GAS M type M1 [4] = test: Opsonophagocytosis / bactericidal activity in vitro, GAS M type M1; type: cell-based, Group A streptococci
Protocol: as §3, §4

## CAEKQRLEDLGQKFERLKQRS [Peptide M12-2]
[1]
  ELISA (elicitation of antibodies): yes (weak)
[2]
  immunoreactivity by ELISA using rabbit sera prepared against whole M protein: confirmed

## CDARSVNGEFPRHVKLKNEIE [Peptide M3-1]
[1]
  ELISA (elicitation of antibodies): yes
[2]
  immunoreactivity by ELISA using rabbit sera prepared against whole M protein: confirmed
GAS M type M3
  reduction of M3 type bacteria: significantly reduce
  % CFU reduction: 70-90%
GAS
  Opsono (in vitro): opsonophagocytize bacteria more effectively and yes
Streptococci (GAS)
  Reduction of colonization: 87%
GAS M type M43
  reduction of M43 type bacteria: significantly reduce
  % CFU reduction: 80-90%

## CDHSDLVAEKQRLEDLGQKFE [Peptide M12-1]
[1]
  ELISA (elicitation of antibodies): yes
GAS M type M12
  % CFU reduction: 70-80%
[2]
  immunoreactivity of peptide with anti-M protein rabbit sera (ELISA): highest reactivity
GAS
  Opsono (in vitro): yes

## CGEFPRHVKLKNEIENLLDQV [Peptide M3-2]
[1]
  ELISA (elicitation of antibodies): yes
GAS M type M3 or M43; mice colonized by M3 or M43
  cross-type protection in vivo: capable in vivo of cross-type protection
GAS M type M3 or M43; mice, colonizing GAS M type M3 or M43, reduction overall
  % CFU reduction: 67% (P < 0.30)
[2]
  immunoreactivity of peptide with anti-M protein rabbit sera (ELISA): highest reactivity
GAS M type M3
  reduction of M3 type bacteria: significantly reduce
  % CFU reduction: 90-95%
GAS
  Opsono (in vitro): yes
Streptococci (GAS)
  Reduction of colonization: 67%
GAS M type M43
  reduction of M43 type bacteria: significantly reduce
  % CFU reduction: 60-80%

## CIQNIRLRHENKDLKARLENA [Peptide M1-2]
[1]
  ELISA (elicitation of antibodies): no
[2]
  immunoreactivity by ELISA using rabbit sera prepared against whole M protein: confirmed

## CIRLRHENKDLKARLENAMEV [Peptide M1-3]
[1]
  ELISA (elicitation of antibodies): yes
[2]
  immunoreactivity by ELISA using rabbit sera prepared against whole M protein: confirmed
GAS M type M1 [3]
  % CFU reduction: 90% (P < 0.10)
GAS M type M1 [4]
  % CFU reduction: 80-95%
GAS
  Opsono (in vitro): yes

## CLDQVTQLYNKHNSNYQQYSA [Peptide M3-4]
[1]
  ELISA (elicitation of antibodies): no
[2]
  immunoreactivity by ELISA using rabbit sera prepared against whole M protein: confirmed

## CLEDLGQKFERLKQRSELYLQ [Peptide M12-3]
[1]
  ELISA (elicitation of antibodies): no
[2]
  immunoreactivity by ELISA using rabbit sera prepared against whole M protein: confirmed

## CNGDGNPREVIEDLAANNPAME [Peptide M1-4]
[1]
  ELISA (elicitation of antibodies): no
[2]
  immunoreactivity of peptide with anti-M protein rabbit sera (ELISA): highest reactivity

## CRVFPRGTVENPDKARELLNK [Peptide M6-1]
[2]
  immunoreactivity by ELISA using rabbit sera prepared against whole M protein: confirmed

## CRVPGTLWLRQKEENDKLKLEK [Peptide M43-3]
[2]
  immunoreactivity by ELISA using rabbit sera prepared against whole M protein: confirmed

## CSDASLHNRITDLEEEREKLLNK [Peptide M77-2]
[2]
  immunoreactivity by ELISA using rabbit sera prepared against whole M protein: confirmed

## CSELYLQQYYDNKSNGYKGDW [Peptide M12-7]
[2]
  immunoreactivity by ELISA using rabbit sera prepared against whole M protein: confirmed

## CSVKDNEKELHNKIADLEEER [Peptide M89-3]
[2]
  immunoreactivity by ELISA using rabbit sera prepared against whole M protein: confirmed

## CTEHEKLRDEYYTLIDAKEEE [Peptide M28-5]
[2]
  immunoreactivity by ELISA using rabbit sera prepared against whole M protein: confirmed

## CTEHEKLRDEYYTLIDAKLEEK [Peptide M28-4]
[2]
  immunoreactivity by ELISA using rabbit sera prepared against whole M protein: confirmed

## CTEVKAAGQSAPKGTNVSADL [Peptide M11-4]
[2]
  immunoreactivity by ELISA using rabbit sera prepared against whole M protein: confirmed

## CTQLYTKHNSNYQQYNAQAGR [Peptide M3-11]
[2]
  immunoreactivity by ELISA using rabbit sera prepared against whole M protein: confirmed

## CTVTRGTINDPQRAKEALDKYE [Peptide M5-1]
[2]
  immunoreactivity by ELISA using rabbit sera prepared against whole M protein: confirmed

## CTVTRGTINDPQRAKEVIDKYE [Peptide M5-7]
[2]
  immunoreactivity by ELISA using rabbit sera prepared against whole M protein: confirmed

## CTVTRGTVNDPQRAKEALDKYE [Peptide M5-5]
[2]
  immunoreactivity by ELISA using rabbit sera prepared against whole M protein: confirmed

## CTVTRGTVNDPQRAKETLDKYE [Peptide M5-6]
[2]
  immunoreactivity by ELISA using rabbit sera prepared against whole M protein: confirmed

## CTVTRSTINDPQRAKEALDKYE [Peptide M5-8]
[2]
  immunoreactivity by ELISA using rabbit sera prepared against whole M protein: confirmed

## CVPVKKEATKLSEAELYNKIQ [st2967-2]
[2]
  immunoreactivity by ELISA using rabbit sera prepared against whole M protein: confirmed
